Data published in patent publication US6569881B1, “Substituted benzimidazole, the production thereof and the use thereof as means against parasitic protozoa” (Bayer Aktiengesellschaft, priority 1999, dated 2003).
Several values for one entry are separate records, joined by “and”; a condition that tells them apart may be missing. Identical values can stand only once.

How the values were obtained:
Assay type in all cases: in vivo, chicken chicks
[1] = tested on: Eimeria maxima; experiment: Cage experiments coccidiosis/chicks, Eimeria maxima part of the mixed infection
Summary of the method: (§1)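 Male chicks 8–12 days old, three per cage, given compound in feed (ppm) from day -3 to 8 (9) days post-infection; infected by crop tube with ~100,000 E. acervulina, ~30,000 E. maxima and 40,000 E. tenella sporulated oocysts. Scored by weight gain, mortality, dropping and lesion scores (0–6), McMaster oocyst counts and sporulation.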

[2] = tested on: Eimeria acervulina, Eimeria maxima and Eimeria tenella; experiment: Cage experiments coccidiosis/chicks, mixed experimental infection
Summary of the method: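 Male chicks aged 8–12 days, raised coccidia-free, were fed compound in feed (ppm) from day −3 to day 8 (9) p.i. and infected via crop tube with about 100,000 E. acervulina, 30,000 E. maxima and 40,000 E. tenella oocysts. Weight gain, mortality, dropping and lesion scores and oocyst counts were combined into an overall % efficacy.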

[3] = tested on: Eimeria acervulina; experiment: Cage experiments coccidiosis/chicks, Eimeria acervulina part of the mixed infection
Summary of the method: as §1

[4] = tested on: Eimeria tenella; experiment: Cage experiments coccidiosis/chicks, Eimeria tenella part of the mixed infection
Summary of the method: as §1

SMILES: CO[C@@H]1[C@@H](OC)[C@H](C)[C@@](O)(CC(=O)O)O[C@H]1[C@H](C)[C@H]1O[C@@]2(CC[C@@](C)([C@H]3CC[C@@](C)([C@@H]4O[C@@H]([C@H]5O[C@](C)(O)[C@H](C)C[C@@H]5C)C[C@@H]4O[C@@H]4C[C@H](OC)[C@@H](OC)[C@H](C)O4)O3)O2)C[C@H](O)[C@H]1C [MAD, Maduramicin, reference compound]
- oocyst in % of inf. control max. ([1]; 3 ppm in feed): 0%
- oocyst in % of inf. control max. ([1]; MAD 1 ppm): 86 % of inf. control
- oocyst in % of inf. control max. ([1]; MAD 2 ppm): >100 % of inf. control
- oocyst in % of inf. control max. ([1]; MAD 3 ppm): 14 % of inf. control
- % efficacy tot. ([2]; 1 ppm in feed): 38%
- mortality % ([2]; 1 ppm in feed): 0%
- mortality n (died/employed) ([2]; 1 ppm in feed): 0/3
- weight % of not inf. control ([2]; 1 ppm in feed): 77% and 56%
- lesion score ([2]; 1 ppm in feed, grade 0 to 6): 5 and 6
- % efficacy tot. ([2]; 2 ppm in feed): 55% and 32%
- mortality % ([2]; 2 ppm in feed): 0%
- mortality n (died/employed) ([2]; 2 ppm in feed): 0/3
- weight % of not inf. control ([2]; 2 ppm in feed): 74% and 60%
- lesion score ([2]; 2 ppm in feed, grade 0 to 6): 3 and 6
- % efficacy tot. ([2]; 3 ppm in feed): 61% and 93%
- mortality n (died/employed) ([2]; 3 ppm in feed): 0/3 and 1/3
- weight % of not inf. control ([2]; 3 ppm in feed): 76% and 92%
- dropping scores ([2]; 3 ppm in feed, grade 0 to 6): 0
- lesion score ([2]; 3 ppm in feed, grade 0 to 6): 1
- % efficay tot. ([2]; MAD 1 ppm): 7%
- dropping scores ([2]; MAD 1 ppm): 6
- lesion score ([2]; MAD 1 ppm): 6
- mortality % ([2]; MAD 1 ppm): 0%
- mortality n ([2]; MAD 1 ppm): 0/3
- oocyst in % of inf. control tot. ([2]; MAD 1 ppm): 29 % of inf. control
- weight % of not inf. control ([2]; MAD 1 ppm): 59 % of not inf. control
- % efficay tot. ([2]; MAD 2 ppm): 17%
- dropping scores ([2]; MAD 2 ppm): 6
- lesion score ([2]; MAD 2 ppm): 5
- mortality % ([2]; MAD 2 ppm): 0%
- mortality n ([2]; MAD 2 ppm): 0/3
- oocyst in % of inf. control tot. ([2]; MAD 2 ppm): 48 % of inf. control
- weight % of not inf. control ([2]; MAD 2 ppm): 63 % of not inf. control
- % efficay tot. ([2]; MAD 3 ppm): 60%
- dropping scores ([2]; MAD 3 ppm): 6
- lesion score ([2]; MAD 3 ppm): 2.7
- mortality % ([2]; MAD 3 ppm): 33%
- mortality n ([2]; MAD 3 ppm): 0/3
- oocyst in % of inf. control tot. ([2]; MAD 3 ppm): 9 % of inf. control
- weight % of not inf. control ([2]; MAD 3 ppm): 90 % of not inf. control
- oocyst in % of inf. control ac. ([3]; 1 ppm in feed): 60% and >100%
- oocyst in % of inf. control ac. ([3]; MAD 1 ppm): 39 % of inf. control
- oocyst in % of inf. control ac. ([3]; MAD 2 ppm): 27 % of inf. control
- oocyst in % of inf. control ac. ([3]; MAD 3 ppm): 11 % of inf. control
- oocyst in % of inf. control ten. ([4]; MAD 1 ppm): 56 % of inf. control
- oocyst in % of inf. control ten. ([4]; MAD 2 ppm): 82 % of inf. control
- oocyst in % of inf. control ten. ([4]; MAD 3 ppm): 6 % of inf. control
